In US20060063759A1, “Tricyclic steroid hormone nuclear receptor modulators” (priority 2002, published 2006):
Like-named read-outs stand apart in the source and are kept apart here.

How the values were obtained:
human MR = target: T1, human MR (Homo sapiens, UniProt P08235); assay: Mineralocorticoid Receptor Binding Assay ([3H]-aldosterone)
T1 construct: The full length human MR gene is cloned from a human kidney or human brain cDNA library; His tag from the pAcHLT vector (own knowledge); made in house; host or cells: Sf9 insect cells (baculovirus, pAcHLT transfer vector)
T1 sequence (P08235 1-984): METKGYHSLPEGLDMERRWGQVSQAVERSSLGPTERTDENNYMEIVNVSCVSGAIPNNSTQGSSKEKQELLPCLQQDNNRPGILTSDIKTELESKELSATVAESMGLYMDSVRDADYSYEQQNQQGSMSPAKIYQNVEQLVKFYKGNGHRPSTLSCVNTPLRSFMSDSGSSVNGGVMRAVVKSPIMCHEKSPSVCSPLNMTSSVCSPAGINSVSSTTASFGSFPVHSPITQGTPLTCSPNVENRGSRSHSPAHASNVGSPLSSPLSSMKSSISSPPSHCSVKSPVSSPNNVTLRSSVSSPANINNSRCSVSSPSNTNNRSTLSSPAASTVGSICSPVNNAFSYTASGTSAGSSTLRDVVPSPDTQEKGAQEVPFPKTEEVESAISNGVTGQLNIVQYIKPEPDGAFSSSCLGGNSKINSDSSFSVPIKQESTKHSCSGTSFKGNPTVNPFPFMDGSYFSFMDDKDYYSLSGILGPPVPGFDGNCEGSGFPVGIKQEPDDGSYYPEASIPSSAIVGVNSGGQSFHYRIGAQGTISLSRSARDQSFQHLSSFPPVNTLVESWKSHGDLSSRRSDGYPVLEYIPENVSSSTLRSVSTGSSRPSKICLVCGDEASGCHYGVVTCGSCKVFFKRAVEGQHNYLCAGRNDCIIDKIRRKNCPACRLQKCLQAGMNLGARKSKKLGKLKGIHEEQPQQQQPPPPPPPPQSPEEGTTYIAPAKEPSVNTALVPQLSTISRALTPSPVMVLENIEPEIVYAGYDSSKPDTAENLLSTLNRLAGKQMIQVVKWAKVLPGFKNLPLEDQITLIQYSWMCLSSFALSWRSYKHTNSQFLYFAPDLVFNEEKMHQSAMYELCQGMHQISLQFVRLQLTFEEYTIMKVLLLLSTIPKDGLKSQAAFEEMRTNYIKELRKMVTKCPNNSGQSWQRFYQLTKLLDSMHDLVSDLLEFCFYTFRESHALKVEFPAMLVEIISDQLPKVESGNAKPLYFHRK
Method in brief: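 Lysate supernatant of Sf9 cells expressing full-length human MR (20-25 μg protein) was incubated with 0.5 nM [3H]-aldosterone and test compound in molybdate/Tris/phosphate/glycerol buffer, pH 7.5, ~16 h at 4 °C. Bound ligand was filtered and counted by scintillation; IC50 is the concentration halving [3H]-aldosterone binding.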

glucocorticoid receptor = target: T2, glucocorticoid receptor (Homo sapiens, UniProt P04150); assay: Glucocorticoid Receptor Binding Assay ([3H]-dexamethasone, A549 cell extract); details: [3H]-dexamethasone binding, read-out: GR Ki
T2 construct: containing 50-200 ug of A549 cell extract and 1.86 nM [^3H]-dexamethasone; host or cells: A549 human lung epithelial cells (sonicated cell extract)
T2 sequence (P04150 1-777): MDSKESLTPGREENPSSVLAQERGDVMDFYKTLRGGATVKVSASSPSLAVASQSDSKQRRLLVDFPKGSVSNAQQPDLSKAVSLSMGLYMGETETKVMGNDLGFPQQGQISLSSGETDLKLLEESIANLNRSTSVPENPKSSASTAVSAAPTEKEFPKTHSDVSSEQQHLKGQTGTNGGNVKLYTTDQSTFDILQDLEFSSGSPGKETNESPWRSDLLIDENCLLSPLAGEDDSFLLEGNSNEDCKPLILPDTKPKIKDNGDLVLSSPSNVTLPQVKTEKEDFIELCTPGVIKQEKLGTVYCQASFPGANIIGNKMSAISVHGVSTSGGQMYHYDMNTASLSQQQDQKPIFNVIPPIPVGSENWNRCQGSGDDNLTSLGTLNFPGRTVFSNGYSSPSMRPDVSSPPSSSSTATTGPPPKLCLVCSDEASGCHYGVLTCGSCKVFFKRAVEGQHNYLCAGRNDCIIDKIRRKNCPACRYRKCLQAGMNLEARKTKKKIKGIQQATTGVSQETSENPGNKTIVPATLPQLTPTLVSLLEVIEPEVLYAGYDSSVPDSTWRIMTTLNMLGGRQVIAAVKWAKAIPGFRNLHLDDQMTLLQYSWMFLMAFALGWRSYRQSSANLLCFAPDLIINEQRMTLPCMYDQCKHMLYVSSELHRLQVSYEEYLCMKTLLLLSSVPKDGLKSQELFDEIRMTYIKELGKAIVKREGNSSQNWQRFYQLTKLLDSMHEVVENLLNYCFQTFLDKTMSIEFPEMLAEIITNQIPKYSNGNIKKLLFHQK
Method in brief: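 A549 cell extract (50–200 ug) incubated with 1.86 nM [3H]-dexamethasone and test compound for 16 h at 4 °C in Tris-HCl pH 7.2 buffer with glycerol and molybdate. Unbound radioligand removed by dextran-coated charcoal, then supernatant bound counts measured by scintillation.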

[1] = [3H]-aldosterone binding, human MR expressed in Sf9 cells, read-out: MR Ki

Row | Ki (human MR; [1]) [nM] | Ki (glucocorticoid receptor) [nM] | Compound | Ki (human MR) [nM]
1 | < 500 | < 500 | CS(=O)(=O)Nc1cccc(/C=C2\c3ccccc3CCc3cccnc32)c1 [Example 249, (E)-N-[3-(5,6-Dihydro-benzo[5,6]cyclohepta[1,2-b]pyridin-11-ylidenemethyl)-phenyl]-methanesulfonamide] | –
2 | < 500 | < 500 | O/N=C/c1ccc(C=C2c3ccccc3CCc3ccccc32)cc1 [Example 79, 4-(10,11-Dihydro-dibenzo[a,d]cyclohepten-5-ylidenemethyl)-benzaldehyde oxime] | –
3 | < 500 | < 500 | CN(C)c1cccc2c1CCc1ccccc1C2=Cc1cccc(NS(C)(=O)=O)c1 [Example 404] | –
4 | < 500 | < 500 | CS(=O)(=O)Nc1cccc(/C=C2/c3ccc(F)cc3CCc3nc(C(F)(F)F)ccc32)c1 [Example 521] | –
5 | < 500 | < 1000 | Oc1ccc(C=C2c3ccccc3CCc3cc(Cl)ccc32)cc1 [Example 180, 4-(2-Chloro-10,11-dihydro-dibenzo[a,d]cyclohepten-5-ylidenemethyl)-phenol] | –
6 | < 500 | < 500 | CC(C)CC(=C1c2ccccc2CCc2ccccc21)c1cccc(NS(C)(=O)=O)c1 [Example 783] | –
7 | < 500 | < 500 | CS(=O)(=O)Nc1cccc(/C=C2\c3ccccc3COc3ccc(F)cc32)c1 [Example 672] | –
8 | < 500 | < 500 | COc1cccc2c1C(=Cc1cccc(NS(C)(=O)=O)c1)c1ccccc1CC2 [Example 353] | –
9 | < 500 | < 1000 | Cc1cccc(C=C2c3ccccc3CCc3ccccc32)c1 [Example 132, 5-(3-Methyl-benzylidene)-10,11-dihydro-5H-dibenzo[a,d]cycloheptene] | –
10 | < 500 | < 500 | CSc1ccc2c(c1)/C(=C\c1cccc(NS(C)(=O)=O)c1)c1ccccc1CC2 [Example 322] | –
11 | < 500 | < 500 | CC/C(=C1/c2ccccc2COc2ccccc21)c1cccc(NS(C)(=O)=O)c1 [Example 800] | –
12 | < 500 | < 500 | O=c1[nH]c2cc(C=C3c4ccccc4[C@H]4C[C@H]4c4ccccc43)ccc2o1 [Example 606] | –
13 | < 500 | < 500 | CS(=O)(=O)Nc1cccc(/C=C2\c3ccccc3CCc3ccc(O)cc32)c1 [Example 352] | –
14 | < 500 | < 1000 | FC(F)c1ccc(C=C2c3ccccc3CCc3ccccc32)cc1 [Example 73, 5-(4-Difluoromethyl-benzylidene)-10,11-dihydro-5H-dibenzo[a,d]cycloheptene] | –
15 | < 500 | < 500 | CS(=O)(=O)Nc1cccc(/C=C2/c3ccc(F)cc3CCc3nc(C#N)ccc32)c1 [Example 546] | –
16 | < 500 | < 500 | O=c1[nH]c2cc(C=C3c4ccccc4CCc4ccccc43)ccc2o1 [Example 216, 5-(10,11-Dihydro-dibenzo[a,d]cyclohepten-5-ylidenemethyl)-3H-benzooxazol-2-one] | –
17 | < 500 | < 1000 | Cc1nc2cc(C=C3c4ccccc4CCc4ccccc43)ccc2o1 [Example 218, 5-(10,11-Dihydro-dibenzo[a,d]cyclohepten-5-ylidenemethyl)-2-methyl-benzooxazole] | –
18 | < 500 | < 1000 | Nc1cccc(C=C2c3ccccc3[C@H]3C[C@H]3c3ccccc32)c1 [Example 604] | –

Row | Ki (human MR; [1]) [nM] | Ki (glucocorticoid receptor) [nM] | Compound | Ki (human MR) [nM]
19 | < 500 | < 10000 | O=c1[nH]c2ccc(/C=C3\c4ccccc4CCc4cc(C(F)(F)F)ccc43)cc2[nH]1 [Example 472] | –
20 | < 1000 | < 500 | CS(=O)(=O)Nc1cccc(/C=C2\c3ccccc3CCc3scnc32)c1 [484(a), N-[3-(9,10-Dihydro-1-thia-3-aza-benzo[f]azulen-4-ylidenemethyl)-phenyl]-methanesulfonamide] | –
21 | < 500 | < 500 | CS(=O)(=O)Nc1ccc(C=C2c3ccccc3CCc3sccc32)cc1 [Example 495] | –
22 | < 500 | < 1000 | O=c1[nH]c2ccc(/C=C3/c4ccccc4CCc4cccc(Cl)c43)cc2[nH]1 [Example 465] | –
23 | < 500 | < 500 | CS(=O)(=O)Nc1cccc(/C=C2\c3cccnc3CCc3c(F)cccc32)c1 [Example 574] | –
24 | < 500 | < 10000 | Oc1cccc(C=C2c3ccccc3CCc3c2cccc3C(Br)Br)c1 [Example 373] | –
25 | < 500 | < 500 | CS(=O)(=O)Nc1cccc(/C=C2/c3ccccc3OCc3c(F)cccc32)c1 [Example 731] | –
26 | < 500 | < 1000 | CS(=O)(=O)Nc1cccc(/C=C2\c3ccccc3C[S+]([O-])c3ccccc32)c1 (stereo not drawn) [Example 263, N-[3-(10-Oxo-10,11-dihydro-10λ^4-thia-dibenzo[a,d]cyclohepten-5-ylidenemethyl)-phenyl]-methanesulfonamide] | –
27 | < 500 | < 1000 | Oc1ccc(C=C2c3ccccc3CCc3c(Cl)cccc32)cc1 (mixture of isomers) [Example 212, 4-(1-Chloro-10,11-dihydro-dibenzo[a,d]cyclohepten-5-ylidenemethyl)-phenol] | –
28 | < 500 | < 500 | CS(=O)(=O)Nc1cccc(/C=C2\c3ccc(Cl)cc3COc3ccccc32)c1 [Example 725] | –
29 | < 500 | < 500 | Nc1ccc(C=C2c3ccccc3CCc3cc(Cl)ccc32)cc1 [Example 394] | –
30 | < 500 | < 500 | CCCS(=O)(=O)Nc1ccc(C=C2c3ccccc3CCc3ccccc32)cc1 [Example 108, Propane-1-sulfonic acid [4-(10,11-dihydro-dibenzo[a,d]cyclohepten-5-ylidenemethyl)-phenyl]-amide] | –
31 | < 1000 | < 500 | CS(=O)(=O)Nc1cccc(/C=C2\c3ccccc3CCc3cc(-c4nn[nH]n4)ccc32)c1 [Example 343] | –
32 | < 500 | < 10000 | O=c1[nH]c2ccc(C=C3c4ccccc4COc4ccccc43)cc2[nH]1 [Example 626] | –
33 | < 500 | < 1000 | FC(F)(F)c1cccc(CC2c3ccccc3CCc3ccccc32)c1 [Example 137, 5-(3-Trifluoromethyl-benzyl)-10,11-dihydro-5H-dibenzo[a,d]cycloheptene] | –
34 | < 500 | < 500 | CS(=O)(=O)Nc1cccc(/C=C2\c3ccccc3CCc3ncsc32)c1 [Example 556] | –
35 | < 500 | < 10000 | C(=C1c2ccccc2CCc2sccc21)c1ccccc1 [Example 489] | –

Row | Compound | Ki (human MR; [1]) [nM] | Ki (glucocorticoid receptor) [nM] | Ki (human MR) [nM]
36 | COc1ccc2c(c1)CCc1ccccc1C2=Cc1ccc(O)cc1 (mixture of isomers) [Example 168, 4-(2-Methoxy-10,11-dihydro-dibenzo[a,d]cyclohepten-5-ylidenemethyl)-phenol] | – | < 1000 | < 500
